These results are taken from ChEMBL document CHEMBL1146468, “Plakolide A, a new gamma-lactone from the marine sponge Plakortis sp” (J Nat Prod, 2004).

Each structure is given as a SMILES string. Values after ≈ are worked out from the molar mass of the structure shown.

One data set relates to PANC-1. The data set can be described thus: Cytotoxicity against human PANC1 cells after 72 hrs by MTT assay. The conditions noted are these: PANC-1, 72 h. Format: functional, cell-based. Background: Tetrazolium dyes change colour on reduction, which living cells bring about.
The nature of data set [1]: Cytotoxicity against human NCI/ADR cells after 72 hrs by MTT assay. The class given is functional, cell-based. The conditions noted are these: NCI/ADR-RES.
Another data set concerns A549. Kind of data set: Cytotoxicity against human A549 cells after 72 hrs by MTT assay. Format: functional, cell-based. The conditions noted are these: A549, 72 h.
The next data set concerns P388. Kind of data set: Cytotoxicity against mouse P388 cells after 72 hrs by MTT assay. The class given is functional, cell-based. Conditions: P388, 72 h.
Data set [2] is described as follows: Cytotoxicity against mouse RAW264.7 cells assessed as cell viability at 1.3 ug/ml after 3 hrs by MTT assay. Format: cell-based. Conditions: read-out: Activity.
The target of data set [3] is T1, Nitric oxide synthase, inducible (Mus musculus, UniProt P29477).
T1 sequence (P29477 whole entry): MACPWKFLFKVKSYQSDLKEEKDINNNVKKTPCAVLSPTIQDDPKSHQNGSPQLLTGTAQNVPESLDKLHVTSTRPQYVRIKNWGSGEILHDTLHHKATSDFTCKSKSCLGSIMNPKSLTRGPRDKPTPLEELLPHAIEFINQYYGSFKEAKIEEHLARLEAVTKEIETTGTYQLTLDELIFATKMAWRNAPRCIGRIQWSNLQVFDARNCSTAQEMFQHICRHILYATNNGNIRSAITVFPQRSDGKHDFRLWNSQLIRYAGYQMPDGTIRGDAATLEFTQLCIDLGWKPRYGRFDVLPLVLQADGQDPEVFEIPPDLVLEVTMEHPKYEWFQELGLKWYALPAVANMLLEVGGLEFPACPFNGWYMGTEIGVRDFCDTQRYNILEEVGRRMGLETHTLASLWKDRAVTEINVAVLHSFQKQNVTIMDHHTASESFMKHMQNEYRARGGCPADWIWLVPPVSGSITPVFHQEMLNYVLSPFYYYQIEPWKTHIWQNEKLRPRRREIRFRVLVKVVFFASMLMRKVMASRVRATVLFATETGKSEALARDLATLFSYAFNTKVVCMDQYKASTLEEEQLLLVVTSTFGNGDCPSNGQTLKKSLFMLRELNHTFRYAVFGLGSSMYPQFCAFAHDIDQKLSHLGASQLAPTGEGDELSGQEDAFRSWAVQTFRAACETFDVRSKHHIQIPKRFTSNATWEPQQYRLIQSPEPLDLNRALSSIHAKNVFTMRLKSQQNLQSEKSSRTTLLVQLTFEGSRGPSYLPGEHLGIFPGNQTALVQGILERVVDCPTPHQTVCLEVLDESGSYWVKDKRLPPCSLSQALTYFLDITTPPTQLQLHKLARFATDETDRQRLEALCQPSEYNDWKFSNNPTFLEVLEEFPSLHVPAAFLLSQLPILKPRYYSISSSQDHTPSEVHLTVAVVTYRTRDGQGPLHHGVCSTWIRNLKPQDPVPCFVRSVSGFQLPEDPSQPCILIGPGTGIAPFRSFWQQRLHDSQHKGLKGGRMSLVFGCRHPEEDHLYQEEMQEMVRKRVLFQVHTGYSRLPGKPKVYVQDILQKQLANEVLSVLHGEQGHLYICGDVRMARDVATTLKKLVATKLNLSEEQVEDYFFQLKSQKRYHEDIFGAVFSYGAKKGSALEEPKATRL
Kind of data set: Inhibition of iNOS-mediated NO production in LPS-stimulated mouse RAW264.7 cells by Griess method. The class given is cell-based.

With `C=C1C[C@@](C)(/C=C/C=C/CCCCCCCC)OC1=O` [PLAKOLIDE A], the IC50 in the data set on PANC-1 is 3.8 µg/mL (≈ 13.7 µM); in data set [1], 3.7 µg/mL (≈ 13.4 µM); in the data set on A549, 5 µg/mL (≈ 18.1 µM); in the data set on P388 it was 1.1 µg/mL (≈ 3.98 µM); in data set [3], 724 nM. For the same compound, the viability at 3 h, 1.3 ug/ml in data set [2] was 50%.

A word on the IC50: it is the concentration needed to halve the response being measured. Read a high IC50 as weaker potency in that assay.
